Measured values from PubChem BioAssay AID2060605 (Molecular Pharmacology Branch, DTP, NCI, 2025).
Several values for one entry are separate records, joined by “and”; a condition that tells them apart may be missing. Identical values can stand only once.

System: 947758-054-R-J2-PDC spheroid growth, percent test/control
Experiment: Anticancer human tumor 947758-054-R-J2-PDC patient-derived colon adenocarcinoma cell line growth inhibition [CLK]
Details: spheroids with HUVEC and MSC; for viability, T/C: stronger effect = lower value
From the text: A high-throughput screen of multi-cell type tumor spheroids was designed to identify active combinations of […] and targeted small molecules. Complex spheroids include a stromal component modeled by human endothelial cells (HUVEC) and fibroblasts modeled by human mesenchymal stem cells (MSCs). The concentration ranges selected for each drug and investigational agent were based upon clinically achievable concentrations if the clinical Cmax of the agent was known.
Compounds. The drugs and investigational agents: cirtuvivint (SM08502; NSC835563), CC-671 (NSC850746), vemurafenib (NSC761431), tapotoclax (NSC804041), sotorasib (NSC818433), adagrasib (NSC831453), MRTX-1133 (NSC836407), BAY2416964 (NSC825713), copanlisib (NSC816437), inavolisib (NSC800729), abemaciclib (NSC768073), osimertinib (NSC779217), entinostat (NSC756642), eltanexor (KPT-8602, NSC794443), venetoclax (NSC766270), ceralasertib (NSC777638), bortezomib (NSC756655), olaparib (NSC753686), talazoparib (NSC767125), alisertib (NSC759677), peposertib (NSC802822), gemcitabine (NSC613327), 5-fluorouracil (NSC19893), SN-38 (NSC673596), oxaliplatin (NSC266046), paclitaxel (NSC125973), and doxorubicin (NSC123127), were obtained from the National Cancer Institute (NCI) Developmental Therapeutics Program Chemical Repository. The FDA-approved anticancer drug set is available from the Developmental Therapeutics Program at https://dtp.cancer.gov/organization/dscb/obtaining/available plates.htm. […] The stock solutions were prepared in dimethyl sulfoxide (DMSO, Sigma-Aldrich, St. Louis, MO, cat. D2650), except for the platinum complexes which were prepared in saline (Quality Biological, Gaithersburg, MD, cat. 114-055-101), at 800-fold the tested concentration and stored at -70 degrees C prior to their use. All drugs and investigational agents were tested over a range starting from a high concentration at or near the clinical Cmax and decreasing in half-log increments. If the clinical Cmax for an agent had not been determined, the highest concentration tested was 10 microM.
Cell Culture. All cells were maintained in an incubator at 37 degrees C and 5% CO2 with 95% humidity. The PDC lines were cultured according to standard operating procedures established by the NCI PDMR. Briefly, all PDCs were thawed and cultured in Matrigel-coated flasks prepared with a working solution of 1X Ham's F-12 nutrient mix, without supplementation (Invitrogen, Waltham, MA, cat. 11765054), 100 U/mL penicillin-streptomycin (Invitrogen, cat. 15140122), and 2.5% Matrigel (Corning Inc., Corning, NY, cat. 354248) for the first three passages. The 947758-054-R-J2-PDC line was cultured in 6B/Colon 1A media, which includes advanced DMEM/F-12 (Thermo Fisher Scientific, cat. 12634028), 10 mM HEPES (Thermo Fisher Scientific, cat. 15630080), 1X GlutaMAX supplement (Thermo Fisher Scientific, cat. 35050061), 0.1 mg/mL primocin (InvivoGen, cat. ant-pm-2), 10% defined fetal bovine serum, heat inactivated (HyClone Laboratories Inc., cat. SH30070.03HI), 1.25 mM N-Acetyl-L-cysteine (Sigma-Aldrich, cat. A9165), 10 mM nicotinamide (Sigma-Aldrich, cat. N0636), 1X B-27 supplement (Thermo Fisher Scientific, cat. 17504044), 1X N-2 supplement (Thermo Fisher Scientific, cat. 17502048), and 10 microM Y-27632 dihydrochloride (Tocris Bioscience, cat. 1254). The 876862-298-R-J1-PDC was cultured in 6E media, which includes all 6B/Colon 1A media components plus 50% L-WRN conditioned media (ATCC, cat. CRL-3276), 50 ng/mL recombinant human EGF recombinant protein (hEGF; Thermo Fisher Scientific, cat. PHG0311), 10 ng/mL recombinant human fibroblast growth factor 10 (hGFG-10; PeproTech, cat. 100-26), 1 ng/mL recombinant human fibroblast growth factor 2 (hFGF-2; PeproTech, cat. 100-18B), and 1 µM prostaglandin E2 (PGE2; Tocris, cat. 2296). The 227483-062-R1-J1-PDC line was cultured in Panc media, containing all 6E components except hFGF-2, with the addition of 500 nM SB-431542 (Selleckchem, cat. S1067) and 10 nM gastrin (Tocris, cat. 3006). […]

[1] = curve of first compound, second compound 0.0316 µM
[2] = curve of first compound, second compound 0.1 µM
[3] = curve of first compound, second compound 0.316 µM
[4] = curve of first compound, second compound 1 µM
[5] = curve of first compound, second compound 3.16 µM
[6] = curve of first compound, second compound 10 µM
[7] = second compound 0.0316 µM, first compound 0.0316 µM
[8] = second compound 0.0316 µM, first compound 0.1 µM
[9] = second compound 0.0316 µM, first compound 0.316 µM
[10] = second compound 0.0316 µM, first compound 1 µM
[11] = second compound 0.0316 µM, first compound 3.16 µM
[12] = second compound 0.0316 µM, first compound 10 µM
[13] = second compound 0.1 µM, first compound 0.0316 µM
[14] = second compound 0.1 µM, first compound 0.1 µM
[15] = second compound 0.1 µM, first compound 0.316 µM
[16] = second compound 0.1 µM, first compound 1 µM
[17] = second compound 0.1 µM, first compound 3.16 µM
[18] = second compound 0.1 µM, first compound 10 µM
[19] = second compound 0.316 µM, first compound 0.0316 µM
[20] = second compound 0.316 µM, first compound 0.1 µM
[21] = second compound 0.316 µM, first compound 0.316 µM
[22] = second compound 0.316 µM, first compound 1 µM
[23] = second compound 0.316 µM, first compound 3.16 µM
[24] = second compound 0.316 µM, first compound 10 µM
[25] = second compound 1 µM, first compound 0.0316 µM
[26] = second compound 1 µM, first compound 0.1 µM
[27] = second compound 1 µM, first compound 0.316 µM
[28] = second compound 1 µM, first compound 1 µM
[29] = second compound 1 µM, first compound 3.16 µM
[30] = second compound 1 µM, first compound 10 µM
[31] = second compound 3.16 µM, first compound 0.0316 µM
[32] = second compound 3.16 µM, first compound 0.1 µM
[33] = second compound 3.16 µM, first compound 0.316 µM
[34] = second compound 3.16 µM, first compound 1 µM
[35] = second compound 3.16 µM, first compound 3.16 µM
[36] = second compound 3.16 µM, first compound 10 µM
[37] = second compound 10 µM, first compound 0.0316 µM
[38] = second compound 10 µM, first compound 0.1 µM
[39] = second compound 10 µM, first compound 0.316 µM
[40] = second compound 10 µM, first compound 1 µM
[41] = second compound 10 µM, first compound 3.16 µM
[42] = second compound 10 µM, first compound 10 µM
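Note: spheroids exposed to compounds for one week before readout.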
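Throughout, for viability, T/C: 100% = DMSO vehicle control wells.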

C=CC(=O)N1CCN(c2nc(=O)n(-c3c(C)ccnc3C(C)C)c3nc(-c4c(O)cccc4F)c(F)cc23)C(C)C1 (stereo unspecified) + CN1CCN(c2cc(C(=O)Nc3cc4cc(-c5cnn(C)c5)ccc4cn3)ccn2)CC1
IC50 [1]: > 10000 nM
IC50 [2]: > 10000 nM
IC50 [3]: < 31.6 nM
IC50 [4]: < 31.6 nM
IC50 [5]: < 31.6 nM
IC50 [6]: < 31.6 nM
viability, T/C [7]: 118%
viability, T/C [8]: 143%
viability, T/C [9]: 122%
viability, T/C [10]: 98.4%
viability, T/C [11]: 113%
viability, T/C [12]: 99.8%
viability, T/C [13]: 172%
viability, T/C [14]: 199%
viability, T/C [15]: 161%
viability, T/C [16]: 234%
viability, T/C [17]: 167%
viability, T/C [18]: 77.3%
viability, T/C [19]: 4.67%
viability, T/C [20]: 7.3%
viability, T/C [21]: 6.68%
viability, T/C [22]: 5.29%
viability, T/C [23]: 3.14%
viability, T/C [24]: 1.35%
viability, T/C [25]: 0.18%
viability, T/C [26]: 3.35%
viability, T/C [27]: 0.19%
viability, T/C [28]: 0.19%
viability, T/C [29]: 0.18%
viability, T/C [30]: 0.21%
viability, T/C [31]: 2.2%
viability, T/C [32]: 0.99%
viability, T/C [33]: 0.31%
viability, T/C [34]: 0.31%
viability, T/C [35]: 0.72%
viability, T/C [36]: 0.51%
viability, T/C [37]: 0.46%
viability, T/C [38]: 0.29%
viability, T/C [39]: 1.59%
viability, T/C [40]: 0.39%
viability, T/C [41]: 0.98%
viability, T/C [42]: 0.57%

COc1ccc([C@@H](O)c2cc(-c3ncnc4cc(N5CCOCC5)ccc34)c(F)cc2Cl)nn1 + CNC(=O)c1ccc(Nc2nc(OC3CCCC3)c3c(-c4ccc5nc(C)oc5c4)c[nH]c3n2)c(OC)c1
IC50 [1]: 1900 nM
IC50 [2]: 899 nM
IC50 [3]: 874 nM
IC50 [4]: 116 nM
IC50 [5]: < 31.6 nM
IC50 [6]: < 31.6 nM
viability, T/C [7]: 82.4%
viability, T/C [8]: 63.7%
viability, T/C [9]: 74.7%
viability, T/C [10]: 49.5%
viability, T/C [11]: 48.6%
viability, T/C [12]: 32.8%
viability, T/C [13]: 91.8%
viability, T/C [14]: 81.3%
viability, T/C [15]: 62.9%
viability, T/C [16]: 50.4%
viability, T/C [17]: 33.8%
viability, T/C [18]: 25.9%
viability, T/C [19]: 80.1%
viability, T/C [20]: 66.8%
viability, T/C [21]: 58.2%
viability, T/C [22]: 53.4%
viability, T/C [23]: 34.6%
viability, T/C [24]: 17.7%
viability, T/C [25]: 59%
viability, T/C [26]: 51.9%
viability, T/C [27]: 40%
viability, T/C [28]: 31.6%
viability, T/C [29]: 24.2%
viability, T/C [30]: 6.15%
viability, T/C [31]: 38%
viability, T/C [32]: 32.4%
viability, T/C [33]: 37.6%
viability, T/C [34]: 24.1%
viability, T/C [35]: 14.1%
viability, T/C [36]: 7.87%
viability, T/C [37]: 30.4%
viability, T/C [38]: 31.9%
viability, T/C [39]: 31%
viability, T/C [40]: 21.5%
viability, T/C [41]: 8.56%
viability, T/C [42]: 5.76%

CCCS(=O)(=O)Nc1ccc(F)c(C(=O)c2c[nH]c3ncc(-c4ccc(Cl)cc4)cc23)c1F
viability, T/C (compound 0.0316 µM): 81.8% and 79.5%
viability, T/C (compound 0.1 µM): 79.8% and 65%
viability, T/C (compound 0.316 µM): 79.4% and 71%
viability, T/C (compound 1 µM): 77.4% and 68.7%
viability, T/C (compound 3.16 µM): 83.3% and 76.3%
viability, T/C (compound 10 µM): 80.2% and 70.7%
IC50 (curve of compound): > 10000 nM

CN1CCN(c2cc(C(=O)Nc3cc4cc(-c5cnn(C)c5)ccc4cn3)ccn2)CC1
viability, T/C (compound 0.316 µM): 5.15% [middle of 12 runs]
viability, T/C (compound 1 µM): 0.61% [middle of 11 runs]
viability, T/C (compound 3.16 µM): 0.65% [middle of 10 runs]
viability, T/C (compound 10 µM): 0.36% [middle of 11 runs]
IC50 (compound alone, run of 09/18/2023): 216 nM [middle of 10 runs]
